Here are results for ten compounds from ChEMBL document CHEMBL3817752, “Antimycobacterial activity of new N(1)-[1-[1-aryl-3-[4-(1H-imidazol-1-yl)phenyl]-3-oxo]propyl]-pyridine-2-carboxamidrazone derivatives” (Bioorg Med Chem Lett, 2016).

≈ marks a conversion by molar mass, not a printed value. Calls of active or inactive are those of the source. The rule behind the calls is not given here.

In data set [1] the test system is Candida albicans. Nature of the data set: Antimicrobial activity against Candida albicans 685 clinical isolate at 5 ug per disk after 18 to 24 hrs by agar diffusion assay. The format is functional. The settings on record: read-out: DIZ. A general note: In agar diffusion tests the substance spreads into inoculated agar from a disc or well.
The test system of the next data set is Mycobacterium gordonae. Nature of the data set: Antimycobacterial activity against Mycobacterium gordonae NCTC 10267 after 7 days by resazurin microtiter assay. The data set is classed as functional. The settings on record: NCTC 10267, 168 h. (In general: Alamar Blue is a resazurin reagent that responds to reducing activity.)
Data set [2] relates to Mycobacterium scrofulaceum. Nature of the data set: Antimycobacterial activity against Mycobacterium scrofulaceum NCTC 10803 after 7 days by resazurin microtiter assay. The data set is classed as functional. The settings on record: 168 h.
For a further data set, the system named is Mycobacterium kansasii. Nature of the data set: Antimycobacterial activity against Mycobacterium kansasii NCTC 10268 after 7 days by resazurin microtiter assay. The data set is classed as functional. The following applies: NCTC 10268, 168 h.
The subject of a further data set is Mycobacterium marinum. As to the kind of experiment: Antimycobacterial activity against Mycobacterium marinum CIP 6423 after 7 days by resazurin microtiter assay. The data set is classed as functional. The following applies: CIP 6423, 168 h.
The next data set relates to Mycobacterium avium. Nature of the data set: Antimycobacterial activity against Mycobacterium avium NCTC 08559 after 7 days by resazurin microtiter assay. The format is functional. The settings on record: NCTC 08559, 168 h.
Data set [3] in a line: Cytotoxicity against African green monkey Vero cells after 72 hrs by MTT assay. The settings on record: chlorocebus sabaeus. The data set is classed as cell-based. (In general: Tetrazolium assays rely on reduction of a dye to a coloured formazan, in cell work by metabolically active cells.)
Data set [4] can be described thus: Selectivity index, ratio of CC50 for African green monkey Vero cells to MIC for Mycobacterium tuberculosis H37Ra […]. The settings on record: read-out: Selectivity Index. The format is toxicity, cell-based.
The target of data set [5] is T1, Sterol 14alpha-demethylase (Mycobacterium tuberculosis) (UniProt P9WPP9).
T1 sequence (whole entry): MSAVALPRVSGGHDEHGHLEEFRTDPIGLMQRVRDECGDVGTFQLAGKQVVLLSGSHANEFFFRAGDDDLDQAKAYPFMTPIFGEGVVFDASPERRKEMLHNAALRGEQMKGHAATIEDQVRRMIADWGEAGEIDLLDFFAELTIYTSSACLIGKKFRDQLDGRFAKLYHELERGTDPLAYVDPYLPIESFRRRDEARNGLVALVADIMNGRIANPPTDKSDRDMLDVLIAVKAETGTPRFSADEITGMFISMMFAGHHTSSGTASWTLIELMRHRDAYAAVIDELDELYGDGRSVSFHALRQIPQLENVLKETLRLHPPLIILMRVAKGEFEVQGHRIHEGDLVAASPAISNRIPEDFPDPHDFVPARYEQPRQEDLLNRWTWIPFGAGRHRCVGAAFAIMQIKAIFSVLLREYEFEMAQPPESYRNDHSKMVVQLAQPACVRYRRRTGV
As to the kind of experiment: Binding affinity to N-terminal His-tagged Mycobacterium tuberculosis H37Rv ATCC 25618 CYP51 expressed in Escherichia coli Rosetta (DE3) by spectrophotometric analysis.

Data set [6] concerns Staphylococcus aureus. Nature of the data set: Antimicrobial activity against Staphylococcus aureus ATCC 25923 at 20 ug per disk after 18 to 24 hrs by agar diffusion assay. The format is functional. The settings on record: read-out: DIZ.
The test system of data set [7] is Escherichia coli. Nature of the data set: Antimicrobial activity against Escherichia coli ATCC 25922 at 20 ug per disk after 18 to 24 hrs by agar diffusion assay. The format is functional. The following applies: read-out: DIZ.
In data set [8] the test system is Candida albicans. Nature of the data set: Antimicrobial activity against Candida albicans 685 clinical isolate at 20 ug per disk after 18 to 24 hrs by agar diffusion assay. The format is functional. The settings on record: read-out: DIZ.
Data set [9] deals with Mycobacterium tuberculosis. Nature of the data set: Antimycobacterial activity against Mycobacterium tuberculosis H37Ra […] after 7 days by resazurin microtiter assay. The format is functional. The following applies: 168 h.
For data set [10], the system named is Mycobacterium intracellulare. As to the kind of experiment: Antimycobacterial activity against Mycobacterium intracellulare NCTC 10425 after 7 days by resazurin microtiter assay. The data set is classed as functional. The following applies: NCTC 10425, 168 h.
Data set [11] deals with Staphylococcus aureus. As to the kind of experiment: Antimicrobial activity against Staphylococcus aureus ATCC 25923 at 30 ug per disk after 18 to 24 hrs by agar diffusion assay. The format is functional. The following applies: read-out: DIZ.
The test system of data set [12] is Escherichia coli. Nature of the data set: Antimicrobial activity against Escherichia coli ATCC 25922 at 30 ug per disk after 18 to 24 hrs by agar diffusion assay. The data set is classed as functional. The settings on record: read-out: DIZ.

With `C[C@@H]1[C@H](O)[C@@H](C)/C=C/C=C/C=C/C=C/C=C/C=C/C=C/[C@H](O[C@@H]2O[C@H](C)[C@@H](O)[C@H](N)[C@@H]2O)C[C@@H]2O[C@](O)(C[C@@H](O)C[C@@H](O)[C@H](O)CC[C@@H](O)C[C@@H](O)CC(=O)O[C@H]1C)C[C@H](O)[C@H]2C(=O)O` [AMPHOTERICIN B], in the data set with Candida albicans [1], the zone of inhibition at 5 µg/disc is 16 mm.

By MIC is commonly meant the lowest concentration found to suppress growth. Usually CC50 stands for the concentration giving 50% cytotoxicity. Regarding `N/C(=N/NC(CC(=O)c1ccc(-n2ccnc2)cc1)c1ccc(Br)cc1)c1ccccn1` (stereo not given), the MIC with Mycobacterium gordonae was found to be 2 µM (≈ 0.979 µg/mL); in data set [2], 16.3 µM (≈ 7.98 µg/mL); in the data set on Mycobacterium kansasii, 4.1 µM (≈ 2.01 µg/mL); against Mycobacterium marinum it was 8.2 µM (≈ 4.01 µg/mL); with Mycobacterium avium, 131 µM (≈ 64.1 µg/mL); in data set [9] it was 16.3 µM (≈ 7.98 µg/mL). Further, the MIC in data set [10] was found to be 131 µM (≈ 64.1 µg/mL). For the same compound, in data set [3], the midpoint of cytotoxicity, the CC50 at 72 h, lay at 298 µM. Moreover, the selectivity ratio in [4] came to 18. Besides, the result in data set [5] was inactive. For the same compound, the zone of inhibition at 20 µg/disc in the data set on Staphylococcus aureus [6] was 20 mm; in the data set with Escherichia coli [7], 6 mm; in the data set with Candida albicans [8], 8 mm.

With `CC(=O)OCC1=C(C(=O)O)N2C(=O)[C@@H](NC(=O)Cc3cccs3)[C@H]2SC1` [CEPHALOTHIN], the values for the zone of inhibition at 30 µg/disc with Staphylococcus aureus [11] and in the data set on Escherichia coli [12] were 31 mm and 11 mm, respectively.

As to `N/C(=N/NC(CC(=O)c1ccc(-n2ccnc2)cc1)c1ccc([N+](=O)[O-])cc1)c1ccccn1` (stereo not given), the MIC in the data set on Mycobacterium gordonae amounted to 8.8 µM (≈ 4.01 µg/mL); in data set [2], 8.8 µM (≈ 4.01 µg/mL); with Mycobacterium kansasii, 35.1 µM (≈ 16 µg/mL); against Mycobacterium marinum, 35.1 µM (≈ 16 µg/mL); against Mycobacterium avium, 140 µM (≈ 63.8 µg/mL); in data set [9], 4.4 µM (≈ 2 µg/mL). In data set [10], this compound displayed a minimum inhibitory concentration (MIC) of more than 140 µM. Moreover, it took 23.1 µM to reach half-maximal cytotoxicity in data set [3] (CC50 at 72 h). Further, the outcome in data set [5] was inactive. Also, the zone of inhibition at 20 µg/disc in the data set with Staphylococcus aureus [6] was found to be 13 mm; with Escherichia coli [7] it was 5 mm; with Candida albicans [8] it was 5 mm.

On to `N/C(=N/NC(CC(=O)c1ccc(-n2ccnc2)cc1)c1cccc(F)c1)c1ccccn1` (stereo not given), for which the MIC is 2.3 µM (≈ 0.985 µg/mL) in the data set on Mycobacterium gordonae; 9.3 µM (≈ 3.98 µg/mL) in data set [2]; 9.3 µM (≈ 3.98 µg/mL) in the data set on Mycobacterium kansasii; 18.7 µM (≈ 8.01 µg/mL) with Mycobacterium marinum; 74.7 µM (≈ 32 µg/mL) in the data set on Mycobacterium avium; 4.7 µM (≈ 2.01 µg/mL) in data set [9]. The compound also gave an MIC in data set [10] of 74.7 µM (≈ 32 µg/mL). The 50% cytotoxic concentration (CC50) at 72 h in [3] amounted to 26.5 µM. Moreover, the result in data set [5] was inactive. The zone of inhibition at 20 µg/disc with Staphylococcus aureus [6] came to 16 mm; with Escherichia coli [7], 7 mm; with Candida albicans [8] it was 11 mm.

Consider `N/C(=N/NC(CC(=O)c1ccc(-n2ccnc2)cc1)c1ccccc1[N+](=O)[O-])c1ccccn1` (stereo not given), for which the MIC in the data set on Mycobacterium gordonae was determined as 8.8 µM (≈ 4.01 µg/mL); in [2], 8.8 µM (≈ 4.01 µg/mL); in the data set with Mycobacterium kansasii it was 17.6 µM (≈ 8.02 µg/mL); with Mycobacterium marinum it was 35.1 µM (≈ 16 µg/mL); in the data set with Mycobacterium avium, 70.3 µM (≈ 32 µg/mL); in data set [9], 8.8 µM (≈ 4.01 µg/mL). Moreover, the MIC in data set [10] came out at 140 µM (≈ 63.8 µg/mL). Further, the CC50 at 72 h in data set [3] was found to be 48 µM. The outcome in data set [5] was inactive. Besides, the zone of inhibition at 20 µg/disc was 13 mm in the data set with Staphylococcus aureus [6], 6 mm with Escherichia coli [7] and 4 mm in the data set with Candida albicans [8].

With `N/C(=N/NC(CC(=O)c1ccc(-n2ccnc2)cc1)c1cccc(Cl)c1)c1ccccn1` (stereo not given), the minimum inhibitory concentration (MIC) in the data set on Mycobacterium gordonae came out at 4.5 µM (≈ 2 µg/mL); in data set [2], 18 µM (≈ 8.01 µg/mL); in the data set on Mycobacterium kansasii it was 9 µM (≈ 4 µg/mL); in the data set on Mycobacterium marinum, 18 µM (≈ 8.01 µg/mL); with Mycobacterium avium, 72 µM (≈ 32 µg/mL); in [9] it was 18 µM (≈ 8.01 µg/mL). The compound further gave an MIC in [10] of 72 µM (≈ 32 µg/mL). In addition, in [3], the CC50 at 72 h is 68.6 µM. For the same compound, in data set [5], the outcome was inactive. For the same compound, the zone of inhibition at 20 µg/disc in the data set with Staphylococcus aureus [6] was 22 mm; in the data set on Escherichia coli [7] it was 7 mm; with Candida albicans [8], 11 mm.

For the compound `N/C(=N/NC(CC(=O)c1ccc(-n2ccnc2)cc1)c1ccccc1F)c1ccccn1` (stereo not given), the minimum inhibitory concentration (MIC) amounted to 4.7 µM (≈ 2.01 µg/mL) in the data set with Mycobacterium gordonae; 18.7 µM (≈ 8.01 µg/mL) in [2]; 18.7 µM (≈ 8.01 µg/mL) against Mycobacterium kansasii; 18.7 µM (≈ 8.01 µg/mL) in the data set on Mycobacterium marinum; 74.7 µM (≈ 32 µg/mL) in the data set on Mycobacterium avium; 17.6 µM (≈ 7.54 µg/mL) in data set [9]. In [10], this compound showed an MIC of 74.7 µM (≈ 32 µg/mL). The same compound gave a CC50 at 72 h in data set [3] of 62.1 µM. In data set [5], the outcome was inactive. Besides, the zone of inhibition at 20 µg/disc amounted to 14 mm with Staphylococcus aureus [6], 7 mm in the data set on Escherichia coli [7] and 5 mm with Candida albicans [8].

On to `N/C(=N/NC(CC(=O)c1ccc(-n2ccnc2)cc1)c1ccc(Cl)cc1Cl)c1ccccn1` (stereo not given), for which the minimal inhibitory concentration (MIC) came to 9 µM (≈ 4.31 µg/mL) against Mycobacterium gordonae; 16.7 µM (≈ 8.01 µg/mL) in data set [2]; 4.2 µM (≈ 2.01 µg/mL) in the data set on Mycobacterium kansasii; 33.3 µM (≈ 16 µg/mL) against Mycobacterium marinum; 33.3 µM (≈ 16 µg/mL) with Mycobacterium avium; 9 µM (≈ 4.31 µg/mL) in data set [9]. For the same compound, inhibition of growth in [10] (MIC) required 33.3 µM (≈ 16 µg/mL). Moreover, the midpoint of cytotoxicity in data set [3], the CC50 at 72 h, lay at 27.8 µM. The outcome in [5] was inactive. The zone of inhibition at 20 µg/disc with Staphylococcus aureus [6] stood at 17 mm; with Escherichia coli [7], 6 mm; with Candida albicans [8], 8 mm.

For `N/C(=N/NC(CC(=O)c1ccc(-n2ccnc2)cc1)c1ccccc1)c1ccccn1` (stereo not given), the MIC in the data set on Mycobacterium gordonae came out at 9.7 µM (≈ 3.98 µg/mL); in data set [2] it was 19.5 µM (≈ 8 µg/mL); against Mycobacterium kansasii it was 19.5 µM (≈ 8 µg/mL); with Mycobacterium marinum, 19.5 µM (≈ 8 µg/mL); in the data set with Mycobacterium avium, 78 µM (≈ 32 µg/mL); in data set [9], 19.5 µM (≈ 8 µg/mL). Inhibition of growth in [10] (MIC) required 78 µM (≈ 32 µg/mL). Also, in data set [3], the CC50 at 72 h was determined as 63.5 µM. Further, the outcome in data set [5] was inactive. For the same compound, the figures for the zone of inhibition at 20 µg/disc in the data set with Staphylococcus aureus [6], in the data set on Escherichia coli [7] and with Candida albicans [8] were 14 mm, 7 mm and 5 mm, respectively.
